Data from the NIST ThermoML archive (doi:10.1021/je060271a).

Conditions: 283.15 K, Liquid, Vibrating tube method

CCCCCCCC(=O)OCC(COC(=O)CCCCCCC)(COC(=O)CCCCCCC)COC(=O)CCCCCCC [pentaerythritol tetraoctanoate]
Conditions | mass density [kg/m3]
16618 kPa | 979.5
16646 kPa | 979.5
16674 kPa | 979.5
16703 kPa | 979.6
16736 kPa | 979.5
16765 kPa | 979.6
16794 kPa | 979.5
16827 kPa | 979.7
16856 kPa | 979.7
16890 kPa | 979.7
16919 kPa | 979.7
16949 kPa | 979.6
16980 kPa | 979.7
17009 kPa | 979.6
17039 kPa | 979.7
17073 kPa | 979.7
17102 kPa | 979.7
17138 kPa | 979.7
17168 kPa | 979.9
17198 kPa | 979.9
17227 kPa | 979.7
17264 kPa | 979.9
17293 kPa | 979.9
17323 kPa | 979.8
17360 kPa | 979.9
17390 kPa | 979.9
17427 kPa | 979.9
17458 kPa | 980
17488 kPa | 980
17519 kPa | 979.9
17556 kPa | 980
17588 kPa | 980
17619 kPa | 980
17657 kPa | 980
17688 kPa | 980.1
17726 kPa | 980.1
17758 kPa | 980.1
17790 kPa | 980.1
17823 kPa | 980.2
17862 kPa | 980.2
17894 kPa | 980.2
17926 kPa | 980.1
17966 kPa | 980.2
17998 kPa | 980.1
18037 kPa | 980.2
18070 kPa | 980.2
18103 kPa | 980.3
18137 kPa | 980.4
18177 kPa | 980.3
18210 kPa | 980.4
18244 kPa | 980.4
18285 kPa | 980.3
18319 kPa | 980.3
18360 kPa | 980.5
18394 kPa | 980.4
18429 kPa | 980.3
18470 kPa | 980.4
18504 kPa | 980.5
18539 kPa | 980.6
18581 kPa | 980.6
18616 kPa | 980.6
18652 kPa | 980.5
18694 kPa | 980.6
18731 kPa | 980.6
18766 kPa | 980.8
18802 kPa | 980.7
18846 kPa | 980.7
18882 kPa | 980.7
18919 kPa | 980.7
18963 kPa | 980.7
18999 kPa | 980.8
19044 kPa | 980.7
19081 kPa | 980.7
19118 kPa | 980.8
19155 kPa | 980.8
19200 kPa | 980.9
19238 kPa | 980.9
19276 kPa | 980.8
19320 kPa | 980.9
19357 kPa | 980.9
19394 kPa | 980.9
19437 kPa | 981
19472 kPa | 980.9
19537 kPa | 981
19587 kPa | 981
19666 kPa | 981.2
19710 kPa | 981.2
19746 kPa | 981.2
19773 kPa | 981.1
19802 kPa | 981.2
19829 kPa | 981.2
19855 kPa | 981.2
19888 kPa | 981.2
19915 kPa | 981.2
19942 kPa | 981.4
19976 kPa | 981.2
20003 kPa | 981.3
20036 kPa | 981.3
20064 kPa | 981.4
20092 kPa | 981.3
20120 kPa | 981.4
20156 kPa | 981.4
20180 kPa | 981.4
20215 kPa | 981.4
20244 kPa | 981.3
20280 kPa | 981.5
20310 kPa | 981.5
20341 kPa | 981.5
20376 kPa | 981.5
20397 kPa | 981.5
20414 kPa | 981.5
20435 kPa | 981.5
20452 kPa | 981.6
20469 kPa | 981.5
20490 kPa | 981.5
20508 kPa | 981.6
20525 kPa | 981.6
20543 kPa | 981.7
20563 kPa | 981.5
20581 kPa | 981.4
20598 kPa | 981.6
20619 kPa | 981.6
20637 kPa | 981.5
20658 kPa | 981.6
20676 kPa | 981.7
20694 kPa | 981.6
20715 kPa | 981.7
20733 kPa | 981.6
20751 kPa | 981.7
20769 kPa | 981.6
20790 kPa | 981.8
20808 kPa | 981.7
20830 kPa | 981.8
20848 kPa | 981.6
20866 kPa | 981.7
20884 kPa | 981.7
20905 kPa | 981.7
20923 kPa | 981.9
20942 kPa | 981.7
20964 kPa | 981.8
20982 kPa | 981.9
21004 kPa | 981.8
21022 kPa | 981.9
21040 kPa | 981.9
21059 kPa | 981.9
21081 kPa | 981.8
21099 kPa | 981.9
